# Reference: patent publication US20070155783A1, “Substituted cyclohexyl and piperidinyl derivates as melanocortin-4 receptor modulators” (priority 2003, published 2007)
# pEC50, pIC50: −log10 of the molar value.
# Tests used:
# hMC4-R [1] = target: T1, hMC4-R (Homo sapiens, UniProt P32245); assay: Functional cellular cAMP assay in HEK293 cells (fluorescence polarization); format: cell-based; settings: for % activation functional assay: cAMP produced compared to stimulation with NDP-alpha-MSH; for pEC50: HEK293 cells expressing human melanocortin receptor, cAMP production
# T1 construct: expressed in transfected cells; host or cells: HEK293 cells
# T1 sequence (P32245 whole entry): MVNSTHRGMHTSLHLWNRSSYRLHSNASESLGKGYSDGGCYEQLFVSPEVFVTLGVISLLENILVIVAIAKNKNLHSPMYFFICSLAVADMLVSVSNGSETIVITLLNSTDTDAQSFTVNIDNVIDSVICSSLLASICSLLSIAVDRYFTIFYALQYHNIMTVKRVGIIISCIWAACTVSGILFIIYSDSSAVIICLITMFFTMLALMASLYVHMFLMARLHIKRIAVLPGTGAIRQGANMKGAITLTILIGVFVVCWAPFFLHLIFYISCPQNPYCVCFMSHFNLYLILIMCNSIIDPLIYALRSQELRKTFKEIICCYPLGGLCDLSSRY
# Description: A functional cellular assay, based on competition between unlabeled cAMP and a fixed quantity of fluorescence labeled cAMP for a limited number of binding sites on a cAMP specific antibody, is used to discriminate melanocortin receptor agonists from antagonists by fluorescence polarization.
# HEK293 cells expressing one of the human melanocortin receptors are transferred to 384 well microtiter plates, an appropriate amount of cAMP antibody is added, followed by the addition of different concentrations of the test compound to effect cAMP production. Cells are lysed and a fluorescence labeled cAMP conjugate is dispensed. The plate is read on a fluorescence polarization microplate reader and the amount of cAMP produced as a response to a test compound is compared to the production of cAMP resulting from stimulation with NDP-alpha-MSH.
# To define antagonistic activity of a test compound, the compound is dispensed at different concentrations to cells stimulated by an appropriate amount of NDP-α-MSH. Inhibition of cAMP production is determined by comparing the inhibition of cAMP production of the test compound to the inhibition of cAMP production by a known inhibitor tested at the same concentrations.
# hMC4-R [2] = target: T1, hMC4-R; assay: Membrane binding assay, competition with fluorescence labeled NDP-alpha-MSH (fluorescence polarization); settings: HEK293 cell membrane preparations expressing human melanocortin receptor
# Description: A membrane binding assay is used to identify competitive inhibitors of fluorescence labeled NDP-alpha-MSH binding to HEK293 cell membrane preparations expressing human melanocortin receptors.
# The test compound or unlabeled NDP-alpha-MSH is dispensed at varying concentrations to a 384 well microtiter plate. Fluorescence labeled NDP-alpha-MSH is dispensed at a single concentration, followed by addition of membrane preparations. The plate is incubated for 5 h at room temperature.
# The degree of fluorescence polarization is determined with a fluorescence polarization microplate reader.
# male Wistar rats = assay: Spontaneous feeding paradigm, food intake in rats; format: in vivo, rat; settings: 10 mg/kg
# Description: Food intake in rats is measured after i.p. or p.o. administration of the test compound (see e.g. Chen, A. S. et al. Transgenic Res 2000 April; 9(2):145-54).
# 3-4 Hours following the onset of the light-phase, individually housed, male Wistar rats (200 -300 g) receive an ip injection or po application of test compound or vehicle in an administration volume of 2 ml/kg. Following the administration of substances (1-30 mg/kg), a pre-weighted amount of normal laboratory chow is placed into the food hopper. Food remaining is measured by hand at 1-2 hour intervals for up to 8 hours. Differences in food intake between test-compound and vehicle-treated rats are evaluated.
# Selected Examples of the present invention were active in the rat model at 10 mg/kg after p.o. administration of the test compound using male Wistar rats (n=4-8).
SMILES,% activation functional assay (hMC4-R [1]),pIC50 (hMC4-R [2]),pEC50 (hMC4-R [1]),"increase in cumulative food intake compared to vehicle (male Wistar rats; 2 hours following administration, p=0.048, n=4) [%]","increase in cumulative food intake compared to vehicle (male Wistar rats; 4 hours following administration, p=0.092, n=4) [%]","increase in cumulative food intake compared to vehicle (male Wistar rats; 7 hours following administration, p=0.047, n=4) [%]"
O=C(N[C@H](C=C1CCN(c2ccccc2CN2CCCC2=O)CC1)Cc1ccc(Cl)cc1)c1cc(=O)c2ccccc2o1 [Example 17],no activation,5.51,,,,
O=C(N[C@@H](C=C1CCC(c2ccccc2CN2CCCC2=O)CC1)Cc1ccc(Cl)cc1)[C@H]1Cc2ccccc2CN1 (stereo partly shown) [Example 2],97%,6.52,6.52,,,
COc1ccc2oc(C(=O)N[C@@H](C=C3CCC(c4ccccc4CN4CCCC4=O)CC3)Cc3ccc(Cl)cc3)cc(=O)c2c1 (stereo partly shown) [Example 34],,,,3100,460,151
O=C(N[C@H](C=C1CCC(c2ccccc2CN2CCCC2=O)CC1)Cc1ccc(Cl)cc1)[C@H]1Cc2ccccc2CN1 (stereo partly shown) [Example 1],100%,6.22,5.48,,,
O=C(N[C@@H](C=C1CCC(c2ccccc2CN2CCCC2=O)CC1)Cc1ccc(Cl)cc1)c1cc(=O)c2ccccc2o1 (stereo partly shown) [Example 18],no activation,6.00,,,,
